These compounds were tested against human PD-L1 (Homo sapiens (Human), UniProt Q9NZQ7) (assay: Enzyme-Linked Immunosorbent Assay (ELISA), PD-1/PD-L1 binding). Details: plates coated with human PD-L1; Human PD-1 and biotin added; absorbance at 450 nm.
Procedure: 96 Well plates were coated with 1 μg/mL of human PD-L1 (obtained from R&D) in PBS overnight at 4° C. The wells were then blocked with 2% BSA in PBS (W/V) with 0.05% TWEEN-20 for 1 hour at 37° C. The plates were washed 3 times with PBS/0.05% TWEEN-20 and the compounds were serial diluted (1:5) in dilution medium and added to the ELISA plates. Human PD-1 and biotin 0.3 μg/mL (ACRO Biosystems) were added and incubated for 1 hour at 37° C. then washed 3 times with PBS/0.05% TWEEN-20. A second block was performed with 2% BSA in PBS (W/V)/0.05% TWEEN-20 for 10 min at 37° C. and the plates were washed 3 times with PBS/0.05% TWEEN-20. Streptavidin-HRP was added for 1 hour at 37° C. then the plates were washed 3 times with PBS/0.05% TWEEN-20. TMB substrate was added and reacted for 20 min at 37° C. A stop solution (2 N aqueous […]) was added. The absorbance was read at 450 nm using a micro-plate spectrophotometer.

Chain of human PD-L1 (Q9NZQ7 19-239): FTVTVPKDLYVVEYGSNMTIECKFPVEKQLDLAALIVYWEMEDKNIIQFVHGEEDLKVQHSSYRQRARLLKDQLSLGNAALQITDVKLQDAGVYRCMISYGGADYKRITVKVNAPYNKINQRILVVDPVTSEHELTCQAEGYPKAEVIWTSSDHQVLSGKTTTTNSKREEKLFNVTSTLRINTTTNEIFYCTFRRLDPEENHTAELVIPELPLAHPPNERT

Structure (SMILES)	IC50 [nM]
COc1nc(-c2cccc(-c3cccc(Nc4nc(C)nc5cccnc45)c3C)c2Cl)ccc1CN[C@@H]1CCOC[C@@H]1O [Compound 1.064]	< 10
COc1nc(-c2cccc(-c3cccc(Nc4nc(C)nc5cccnc45)c3C)c2Cl)ccc1CN1CC(C)(C(=O)O)C1 [Compound 1.065]	< 10
COc1nc(-c2cccc(-c3cccc(Nc4nc(C)nc5cccnc45)c3C)c2Cl)ccc1CN1CC(C(=O)O)C1 [Compound 1.066]	< 10
Cc1cc2nccnc2c(Nc2cccc(-c3cccc(-c4ccc(CNC[C@@H]5CCC(=O)N5)c(O)n4)c3Cl)c2C)n1 [Compound 1.067]	10 to 1000
COc1nc(-c2cccc(-c3cccc(Nc4nc(C(C)C)nc5cccnc45)c3C)c2Cl)ccc1CNC[C@@H]1CCC(=O)N1 [Compound 1.068]	< 10
COc1nc(-c2cccc(-c3cccc(Nc4nc(C(F)(F)F)nc5cccnc45)c3C)c2Cl)ccc1CN1CC(C)(C(=O)O)C1 [Compound 1.069]	< 10
COc1nc(-c2cccc(-c3cccc(Nc4nc(C(F)(F)F)nc5cccnc45)c3C)c2Cl)ccc1CNC[C@@H]1CCC(=O)N1 [Compound 1.070]	< 10
COc1nc(-c2cccc(-c3cccc(Nc4ncnc5cccnc45)c3Cl)c2Cl)ccc1CNC[C@@H]1CCC(=O)N1 [Compound 1.071]	< 10
COc1nc(-c2cccc(-c3cccc(Nc4nc(C)nc5cccnc45)c3Cl)c2Cl)ccc1CN1CC(C)(C(=O)O)C1 [Compound 1.072]	< 10
COc1nc(-c2cccc(-c3cccc(Nc4nc(C)nc5cccnc45)c3C)c2Cl)ccc1CNC[C@@H]1CCC(=O)N1 [Compound 1.073]	< 10
COc1nc(-c2cccc(-c3cccc(Nc4nc(C)nc5cccnc45)c3Cl)c2Cl)ccc1CNC[C@@H]1CCC(=O)N1 [Compound 1.074]	< 10
COc1nc(-c2cccc(-c3cccc(Nc4nccc5nccnc45)c3C)c2Cl)ccc1CN[C@@H]1CCOC[C@@H]1O [Compound 1.075]	< 10
COc1nc(-c2cccc(-c3cccc(Nc4nccc5nccnc45)c3C)c2Cl)ccc1CN1CC(C(=O)O)C1 [Compound 1.076]	< 10
COc1nc(-c2cccc(-c3cccc(Nc4nccc5nccnc45)c3C)c2Cl)ccc1CN1CC(O)C1 [Compound 1.077]	< 10
COc1nc(-c2cccc(-c3cccc(Nc4nccc5nccnc45)c3C)c2Cl)ccc1CNC[C@@H]1CCC(=O)N1 [Compound 1.078]	< 10
COc1nc(-c2cccc(-c3cccc(Nc4nccc5nccnc45)c3Cl)c2Cl)ccc1CN1CC(O)C1 [Compound 1.079]	< 10
CCc1nc(-c2cccc(-c3cccc(Nc4nccc5nccnc45)c3Cl)c2Cl)cnc1CNC[C@@H]1CCC(=O)N1 [Compound 1.080]	< 10
COc1nc(-c2cccc(-c3cccc(Nc4nccc5nccnc45)c3Cl)c2Cl)ccc1CN[C@@H]1CNC(=O)C1 [Compound 1.081]	< 10
COc1nc(-c2cccc(-c3cccc(Nc4nccc5nccnc45)c3Cl)c2Cl)ccc1CN1CC(C(=O)O)C1 [Compound 1.082]	< 10
COc1nc(-c2cccc(-c3cccc(Nc4nccc5nccnc45)c3Cl)c2Cl)ccc1CN1CC(C)(C(=O)O)C1 [Compound 1.083]	< 10
COc1nc(-c2cccc(-c3cccc(Nc4nccc5nccnc45)c3Cl)c2Cl)ccc1CNC[C@@H]1CCC(=O)N1 [Compound 1.084]	< 10

Reference: US11866429B2, “Heteroaryl-biphenyl amines for the treatment of PD-L1 diseases” (CHEMOCENTRYX, INC., priority 2019, dated 2024)
